Results published in US20210139959A1, “MODIFIED NUCLEOTIDE TRIPHOSPHATES FOR MOLECULAR ELECTRONIC SENSORS” (priority 2016, published 2021).

System: polymerase, e.g., E. coli Pol I
Details: DNA template A20-C3-A30-G (SEQ ID NO: 3), FIG. 9; T signals are increased current; interpretation of the data
From the text: In this example, 7-deaza-dGTP (see FIG. 14B) was used as a modified dGTP. The signals were obtained for the DNA template {GTCA}10-[sequence] (SEQ ID NO: 2), comprising the 7-deaza modified dGTP.
In this embodiment, the signal data are obtained for the DNA template {GTCA}10-[sequence] (SEQ ID NO: 2), when a modified dGTP is used (7-deaza dGTP of FIG. 14B).

Q: `Nc1nc2c(ccn2[C@H]2C[C@H](O)[C@@H](COP(=O)(O)OP(=O)(O)OP(=O)(O)O)O2)c(=O)[nH]1` [7-deaza dGTP, 7-deaza-2′-deoxyguanosine-5′-triphosphate] was tested. Which “modified dGTP incorporation signal (current)” value did it give?
A: reduction in current
